One data set has as its system γδ T cells. As to conditions: acid hydrolysed, diluted in media; 5%-75%; cited from earlier work.
Another data set concerns MCA-OVA tumor cells. Nature of the data set: Example 2: tumor growth in mice on supplemented diets with or without chemotherapy. The class given is in vivo, C57BL/6 (H-2b) mice. The procedure:
(§1) Mice. […] The animals were distributed into 7 different group diets. There was a control group that received the diet AIN 93 for adult rodents (maintenance). […] Control animals without chemotherapeutic treatment were run in parallel for all tested diets. Body weight was assessed every two days. Blood samples were obtained at day 2, 4 and 10 after the chemo-treatment and at sacrifice (14 or 28 days). An autopsy was performed and tumor mass was assessed.
Cancer Cell Lines. Methylcholanthrene (MCA) induced sarcoma cell line expressing the exogenous antigen ovalbumin (OVA) was grown in DMEM or RPMI 1640 supplemented with 2 mM L-glutamine, 10 mM HEPES, 20 μM 2-mercaptoethanol, 150 U/mL streptomycin, 200 U/mL penicillin, and 10% heat-inactivated FBS. 1×10^6 tumor cells were injected in the flank of the mice 6 days prior to the chemotherapy.
Tumor Growth Evaluation. Growth of tumors was monitored every 2 d by using calipers, and tumor volume was calculated by using the formula length×width×width×0.52 mm^3.

The nature of data set [1]: Example 2: body weight, haematology and flow cytometry of immune cells in tumor-bearing mice on supplemented diets with or without chemotherapy. The class given is in vivo, C57BL/6 (H-2b) mice. As to conditions: for immune cell population / concentration: during the second (tumor-induced) phase; for Global lymphocyte population: following chemotherapy. The procedure: as §1, with “(maintenance). Test diets were administered in doses appropriate to the animal model: (a) Ctrl diet were supplemented with 1% (w/w) L-arginine, (b) 25% of the protein was replaced by glutamine, (c) 1% (w/w) L-citrulline, (d) 1 g/Kg body weight with active hexose correlated compound, (e) 20 mg/day of RNA nucleotides and (f) 25 mg/day of lactoferrin.” for “(maintenance).”
Haematological Evaluation.
Flow Cytometric Analysis.

Data set [2] in a line: Example 1: body weight and haematological toxicity of chemotherapy in tumor-bearing mice.
Procedure: Mice. Inbred eight-week-old C57BL/6 (H-2b) mice were used in the experiments. Mice were inoculated subcutaneously (s.c.) on the left flank with 1×10^6 tumor cells, and tumor growth was monitored every 2 days by caliper measurement. 6 days after the tumor inoculation the animals were treated either with oxaliplatin or doxorubicin. Tumor growth was monitored every two days after the chemotherapeutic treatment and they were sacrificed after two weeks of tumor implantation. Some experiments were carried out until 28 days post-chemo to better assess tumor growth.
Body weight was assessed every two days until sacrifice.
Blood samples were obtained at day 2 and 4 after the chemo-treatment, at day 10 and at sacrifice (14 or 28 days). An autopsy was performed and tumoral mass was assessed.
Haematological Evaluation. Red blood cell enumeration, hemoglobin and hematocrit were measured at 2, 4, 10, 14 and 28 days.
White blood cell counts and differential leukocyte formulation were examined at the same time points. Blood samples were used in addition to determine immune cell populations.
Flow Cytometric Analysis. Cell subset analysis of the CD11c^+, CD11b^+Gr-1^+ and CD11b^+Gr-1^−, CD14^+, CD19^+, CD16^+, CD56^+, CD3^+, CD8^+, CD4^+ was performed. The battery of antibodies used permitted the evaluation of: B and T cell subsets NK, NKT cells, macrophages, dendritic cells, granulocytes.
Another data set has as its system NK cell. As to conditions: about 750 mg per day for two weeks; cited from earlier work.

Consider seven compounds from patent US20110229447A1, “NUTRITIONAL SUPPORT TO PREVENT OR MODERATE BONE MARROW PARALYSIS OR NEUTROPENIA DURING ANTI-CANCER TREATMENT” (priority 2008, published 2011).

`CCNC(=O)CC[C@H](N)C(=O)O` [L-theanine]: in the data set with γδ T cells, the “expansion of γδ T cells” value is given as 15 fold.
Consider `N=C(N)NCCC[C@H](N)C(=O)O` [arginine, L-arginine], for which the tumor size entry in the data set on MCA-OVA tumor cells (combination with chemotherapy versus chemotherapy alone (FIG. 4)) is reported as “further reduced the tumor size”. In addition, the “progression of the implanted tumor” value with MCA-OVA tumor cells (compared to other diet groups) is given as “delayed progression of the implanted tumor”. Also, the “fall of erythrocytes (RBC)” value in data set [1] (between days 6 and 10 post-chemo (FIG. 3)) is “prevented the marked fall of erythrocytes”. Besides, the “immune cell population / concentration” value in data set [1] is recorded as “increase immune cell concentration”. Moreover, in data set [1] (flow cytometry, around 10 days post chemotherapy), the “loss of CD3+ cells” value was “partially modulated”.
On to `NC(=O)NCCC[C@H](N)C(=O)O` [citrulline, L-citrulline], for which, in data set [1], the Global lymphocyte population result was “less depressed”.
For `NC(=O)CC[C@H](N)C(=O)O` [glutamine], the Global lymphocyte population result in data set [1] is on record as “less depressed”.
On to `O=C1[O][Pt]2([NH][C@@H]3CCCC[C@H]3[NH]2)[O]C1=O` [oxaliplatin], for which the Maximal weight loss entry in data set [2] (maximal dose 10 mg/kg, of initial body weight) is given as “around 15%”; in data set [1] (maximal dose 10 mg/kg), “around 15%”. The leukocyte counts entry in data set [2] (recovery starting after 7 days post chemotherapy) is reported as “higher that the baseline counts”.
With lactoferrin, in data set [1] (chemotherapy treated group versus control (FIG. 11)), the “toxicity (bone marrow / blood cells)” value is recorded as “less toxicity”. For the same compound, in data set [1], the “immune cell population / concentration” value is on record as “increase in their immune cell population” and the Global lymphocyte population entry was “less depressed”. Besides, the “leukocytic increase (white blood cell counts)” value in data set [1] (oxaliplatin treated animals, after day ten) is on record as “leukocytic increase tended to be higher”.
Regarding vitamin E, in the data set with NK cell, the “NK cell cytolytic activity” value is recorded as “significantly improved” and the NKG2D expression result was “small but consistent induction”.
